Species on record: Rattus norvegicus
Test: DrugMatrix - Regimen: Daily Repeat
Type: toxicity, organism-based, Sprague-Dawley
Design: regimen Daily Repeat, gender Male, age 6-8 weeks
Conditions: in vivo, po, route oral GAVAGE, […]; for ABSOLUTE BASOPHIL / BASOPHIL / ABSOLUTE EOSINOPHIL / ABSOLUTE LYMPHOCYTE / ABSOLUTE MONOCYTE / ABSOLUTE SEGMENTED NEUTROPHIL / EOSINOPHIL / ERYTHROCYTE COUNT / HEMATOCRIT / HEMOGLOBIN / LEUKOCYTE COUNT / LYMPHOCYTE / MEAN CORPUSCULAR HEMOGLOBIN / MEAN CORPUSCULAR HEMOGLOBIN CONCENTRATION / MEAN CORPUSCULAR VOLUME / MONOCYTE / NEUTROPHIL / NUCLEATED RED BLOOD CELLS / PLATELET COUNT: tissue Blood; for ALANINE AMINOTRANSFERASE / ALBUMIN / ALKALINE PHOSPHATASE / ASPARTATE AMINOTRANSFERASE / BLOOD UREA NITROGEN / CARBON DIOXIDE / CHOLESTEROL / CREATINE PHOSPHOKINASE / CREATININE / GLUCOSE / LACTATE DEHYDROGENASE / LIPASE / TOTAL BILIRUBIN / TOTAL PROTEIN / URIC ACID: tissue Plasma
[1] = 0 mg/kg, 72 h, dose level Control, time 3 day
[2] = 0 mg/kg, 120 h, dose level Control, time 5 day
[3] = 10 mg/kg, 72 h, dose level M1, time 3 day
[4] = 10 mg/kg, 120 h, dose level M1, time 5 day
[5] = 32 mg/kg, 72 h, dose level M2, time 3 day
[6] = 32 mg/kg, 120 h, dose level M2, time 5 day

CC/C(=C(\c1ccccc1)c1ccc(OCCN(C)C)cc1)c1ccccc1 [TAMOXIFEN]
ABSOLUTE BASOPHIL [1]: 0 CELLS/uL
BASOPHIL [1]: 0%
ABSOLUTE BASOPHIL [2]: 0 CELLS/uL
BASOPHIL [2]: 0%
ABSOLUTE BASOPHIL [3]: 0 CELLS/uL
ABSOLUTE EOSINOPHIL [3]: 39 CELLS/uL
ABSOLUTE LYMPHOCYTE [3]: 8296.33 CELLS/uL
ABSOLUTE MONOCYTE [3]: 168.33 CELLS/uL
ABSOLUTE SEGMENTED NEUTROPHIL [3]: 529.67 CELLS/uL
BASOPHIL [3]: 0%
EOSINOPHIL [3]: 0.33%
ERYTHROCYTE COUNT [3]: 5.69 x10E6/uL
HEMATOCRIT [3]: 36.07%
HEMOGLOBIN [3]: 13.53 G/DL
LEUKOCYTE COUNT [3]: 9.03 x10E3/uL
LYMPHOCYTE [3]: 92.33%
MEAN CORPUSCULAR HEMOGLOBIN [3]: 23.9 pg
MEAN CORPUSCULAR HEMOGLOBIN CONCENTRATION [3]: 37.57 G/DL
MEAN CORPUSCULAR VOLUME [3]: 63.63 fL
MONOCYTE [3]: 1.67%
NEUTROPHIL [3]: 5.67%
NUCLEATED RED BLOOD CELLS [3]: 0 /100WBC
PLATELET COUNT [3]: 1296.33 x10E3/uL
ALANINE AMINOTRANSFERASE [3]: 62.67 u/L
ALBUMIN [3]: 4 G/DL
ALKALINE PHOSPHATASE [3]: 415 u/L
ASPARTATE AMINOTRANSFERASE [3]: 79.33 u/L
BLOOD UREA NITROGEN [3]: 9.67 mg/dL
CARBON DIOXIDE [3]: 28.33 mmol/L
CHOLESTEROL [3]: 52.67 mg/dL
CREATINE PHOSPHOKINASE [3]: 228 u/L
CREATININE [3]: 0.2 mg/dL
GLUCOSE [3]: 179 mg/dL
LACTATE DEHYDROGENASE [3]: 97.33 u/L
LIPASE [3]: 9.33 u/L
TOTAL BILIRUBIN [3]: 0.13 mg/dL
TOTAL PROTEIN [3]: 5.57 G/DL
URIC ACID [3]: 1.9 mg/dL
ABSOLUTE BASOPHIL [4]: 0 CELLS/uL
ABSOLUTE EOSINOPHIL [4]: 119.33 CELLS/uL
ABSOLUTE LYMPHOCYTE [4]: 10935 CELLS/uL
ABSOLUTE MONOCYTE [4]: 173 CELLS/uL
ABSOLUTE SEGMENTED NEUTROPHIL [4]: 706 CELLS/uL
BASOPHIL [4]: 0%
EOSINOPHIL [4]: 1%
ERYTHROCYTE COUNT [4]: 6.34 x10E6/uL
HEMATOCRIT [4]: 39.5%
HEMOGLOBIN [4]: 15 G/DL
LEUKOCYTE COUNT [4]: 11.93 x10E3/uL
LYMPHOCYTE [4]: 91.67%
MEAN CORPUSCULAR HEMOGLOBIN [4]: 23.67 pg
MEAN CORPUSCULAR HEMOGLOBIN CONCENTRATION [4]: 37.97 G/DL
MEAN CORPUSCULAR VOLUME [4]: 62.37 fL
MONOCYTE [4]: 1.33%
NEUTROPHIL [4]: 6%
NUCLEATED RED BLOOD CELLS [4]: 0 /100WBC
PLATELET COUNT [4]: 1194 x10E3/uL
ALANINE AMINOTRANSFERASE [4]: 55.67 u/L
ALBUMIN [4]: 4.53 G/DL
ALKALINE PHOSPHATASE [4]: 463 u/L
ASPARTATE AMINOTRANSFERASE [4]: 84 u/L
BLOOD UREA NITROGEN [4]: 10.33 mg/dL
CARBON DIOXIDE [4]: 27 mmol/L
CHOLESTEROL [4]: 49.33 mg/dL
CREATINE PHOSPHOKINASE [4]: 234 u/L
CREATININE [4]: 0.24 mg/dL
GLUCOSE [4]: 120 mg/dL
LACTATE DEHYDROGENASE [4]: 120 u/L
LIPASE [4]: 9.33 u/L
TOTAL BILIRUBIN [4]: 0.1 mg/dL
TOTAL PROTEIN [4]: 6.33 G/DL
URIC ACID [4]: 2.4 mg/dL
ABSOLUTE BASOPHIL [5]: 0 CELLS/uL
ABSOLUTE EOSINOPHIL [5]: 54 CELLS/uL
ABSOLUTE LYMPHOCYTE [5]: 12289.67 CELLS/uL
ABSOLUTE MONOCYTE [5]: 92.33 CELLS/uL
ABSOLUTE SEGMENTED NEUTROPHIL [5]: 964 CELLS/uL
BASOPHIL [5]: 0%
EOSINOPHIL [5]: 0.33%
ERYTHROCYTE COUNT [5]: 6.02 x10E6/uL
HEMATOCRIT [5]: 39.07%
HEMOGLOBIN [5]: 14.67 G/DL
LEUKOCYTE COUNT [5]: 13.4 x10E3/uL
LYMPHOCYTE [5]: 91.67%
MEAN CORPUSCULAR HEMOGLOBIN [5]: 24.4 pg
MEAN CORPUSCULAR HEMOGLOBIN CONCENTRATION [5]: 37.53 G/DL
MEAN CORPUSCULAR VOLUME [5]: 64.97 fL
MONOCYTE [5]: 0.67%
NEUTROPHIL [5]: 7.33%
NUCLEATED RED BLOOD CELLS [5]: 0 /100WBC
PLATELET COUNT [5]: 1258 x10E3/uL
ALANINE AMINOTRANSFERASE [5]: 66.67 u/L
ALBUMIN [5]: 4.63 G/DL
ALKALINE PHOSPHATASE [5]: 371.33 u/L
ASPARTATE AMINOTRANSFERASE [5]: 106.67 u/L
BLOOD UREA NITROGEN [5]: 5.67 mg/dL
CARBON DIOXIDE [5]: 26.33 mmol/L
CHOLESTEROL [5]: 43.33 mg/dL
CREATINE PHOSPHOKINASE [5]: 723.67 u/L
CREATININE [5]: 0.2 mg/dL
GLUCOSE [5]: 150.33 mg/dL
LACTATE DEHYDROGENASE [5]: 184.33 u/L
LIPASE [5]: 9.33 u/L
TOTAL BILIRUBIN [5]: 0.1 mg/dL
TOTAL PROTEIN [5]: 6.03 G/DL
URIC ACID [5]: 2.5 mg/dL
ABSOLUTE BASOPHIL [6]: 0 CELLS/uL
ABSOLUTE EOSINOPHIL [6]: 0 CELLS/uL
ABSOLUTE LYMPHOCYTE [6]: 12430.67 CELLS/uL
ABSOLUTE MONOCYTE [6]: 227.33 CELLS/uL
ABSOLUTE SEGMENTED NEUTROPHIL [6]: 2075.33 CELLS/uL
BASOPHIL [6]: 0%
EOSINOPHIL [6]: 0%
ERYTHROCYTE COUNT [6]: 6.29 x10E6/uL
HEMATOCRIT [6]: 39.17%
HEMOGLOBIN [6]: 14.9 G/DL
LEUKOCYTE COUNT [6]: 14.73 x10E3/uL
LYMPHOCYTE [6]: 84.33%
MEAN CORPUSCULAR HEMOGLOBIN [6]: 23.7 pg
MEAN CORPUSCULAR HEMOGLOBIN CONCENTRATION [6]: 38.07 G/DL
MEAN CORPUSCULAR VOLUME [6]: 62.27 fL
MONOCYTE [6]: 1.67%
NEUTROPHIL [6]: 14%
NUCLEATED RED BLOOD CELLS [6]: 0 /100WBC
PLATELET COUNT [6]: 1261.33 x10E3/uL
ALANINE AMINOTRANSFERASE [6]: 65.67 u/L
ALBUMIN [6]: 4.73 G/DL
ALKALINE PHOSPHATASE [6]: 464.33 u/L
ASPARTATE AMINOTRANSFERASE [6]: 99 u/L
BLOOD UREA NITROGEN [6]: 11.33 mg/dL
CARBON DIOXIDE [6]: 27.33 mmol/L
CHOLESTEROL [6]: 40.33 mg/dL
CREATINE PHOSPHOKINASE [6]: 288.67 u/L
CREATININE [6]: 0.23 mg/dL
GLUCOSE [6]: 136.67 mg/dL
LACTATE DEHYDROGENASE [6]: 164.33 u/L
LIPASE [6]: 9.67 u/L
TOTAL BILIRUBIN [6]: 0.1 mg/dL

— ChEMBL document CHEMBL3885881, “DrugMatrix”
